The values below come from patent publication US5336672A, “Increasing egg production in poultry” (Board of Supervisors of Louisiana State University and …, priority 1992, dated 1994).

Like-named read-outs stand apart in the source and are kept apart here.

Assay [1] has as its system adult men. The note with it: Cr supplementation; cited from earlier work.
Assay [2] deals with turkey breast tissue. To be noted: supplemental Cr; Anderson et al. 1989; cited from earlier work.
For assay [3], the system named is laying hen. The note with it: Jensen et al. 1978; cited from earlier work.
The test system of assay [4] is rabbits. The note with it: cited from earlier work.
The test system of assay [5] is turkey poults. The note with it: Steele et al. 1979; Rosebrough et al. 1981; may depend on Cr (III) in an organic form; cited from earlier work.
Assay [6] has as its system laying hens. The note with it: dietary; Jensen et al. 1980; cited from earlier work.
The test system of assay [7] is rats. The note with it: 200 mg/kg picolinic acid in diet; cited from earlier work.
The subject of assay [8] is swine. To be noted: Hill et al. 1986; cited from earlier work.
In assay [9] the test system is laying hens. In words: Egg production, Example 2 (eight-week trial, hens 28-36 weeks of age). The note with it: for Egg Production: eight weeks, SEM 2.7. Format: in vivo, Hyline 36 commercial-type laying hens. From the text: (§1) Hyline 36 commercial-type laying hens were taken from the Louisiana State University Agricultural Center Poultry Unit. The hens were 32-36 weeks of age during the 28 days of the trial. A randomized complete block design was used, and the hens were blocked on location in the barn. Hens were penned individually in cages (0.30×0.41 m) in an open front building. Each of the six treatments described below was replicated ten times, with one hen per replicate. The hens were fed a corn-soybean meal laying hen basal diet for one week. The composition of the diet is set forth in Table 1, and was formulated to meet or exceed the requirements for all nutrients as stated in "Nutrient Requirements of Poultry," National Research Council (1984). The hens were then randomly allotted to a treatment, and were fed the experimental diets during a 28-day trial. The following treatments were used: (1) Corn-soybean meal basal (B), (2) B+50 ppb Cr, (3) B+100 ppb Cr, (4) B+200 ppb Cr, (5) B+400 ppb Cr, and (6) B+800 ppb Cr. Cromium was administered as chromium picolinate. Treatment diets and water were provided on an ad libitum basis.
(§2) Egg production was recorded daily, and eggs were collected on Days 2, 9, 16, and 23 for determination of specific gravity [weight in air/(weight in air-weight in water)] and Haugh units. (Haugh unit=100 Log10 (Albumen height (in mm)+(7.57-(1.7) (Egg mass in grams)^037))). Eggs were collected on Days 0, 7, 14, 21, and 28 for CH analysis. To determine yolk CH, eggs were hard-cooked by immersion in boiling water for 5 min. Yolks were removed and weighed. The entire yolk was blended with a volume of isopropyl alcohol proportional to the yolk weight (10 ml/g of yolk). The cholesterol content of this extract (mg per g wet weight) was determined by an automated procedure based on the Lieberman-Burchard method. One egg was collected on Day 22 for determination of percentage of egg fat using the acid hydrolysis method, and one egg was collected on Day 24 for determination of percentage of egg crude protein by the Kjeldahl N method.
(§3) Data were analyzed by analysis of variance. Linear, quadratic, and cubic contrasts were used to evaluate the treatment effects. Egg production, specific gravity, Haugh units, and CH were measured over time and analyzed by split-plot analyses using hen(trt*rep) as the error term in the model.
(§4) The procedures described in Example 1 were followed, except as noted. The trial lasted eight weeks, and the hens were 28-36 weeks of age during the eight weeks of the trial. The treatments used were (1) Basal (B), (2) B+100 ppb Cr, (3) B+200 ppb Cr, (4) B+300 ppb Cr, and (5) B+400 ppb Cr. Only egg production is reported.

The subject of assay [10] is laying hens. Kind of assay: Haugh units of eggs, Example 1. Format: in vivo, Hyline 36 commercial-type laying hens. To be noted: for Haugh units: mean of eggs of Days 2, 9, 16, 23, SEM 1.8.
Text: as §1, §2, §3

The subject of assay [11] is laying hens. In words: Egg production, Example 3 (eight-week trial, hens 48-56 weeks of age). It counts as in vivo, Hyline 36 commercial-type laying hens. To be noted: for Egg Production: eight weeks, SEM 4.3.
Text: as §1, §2, §3, §4
The procedures of Example 2 were followed, except that the hens were 48-56 weeks of age during the eight weeks of the trial.

Assay [12] concerns laying hens. In words: Percentage of egg fat (acid hydrolysis method), Example 1. Format: in vivo, Hyline 36 commercial-type laying hens. The note with it: for Egg fat: egg of Day 22, SEM .2, chromium quadratic effect P < .10; for Effect on percentage of egg fat: Cr quadratic, P<0.1.
Text: as §1, §2, §3

Assay [13] deals with laying hens. Kind of assay: Specific gravity of eggs, Example 1. Format: in vivo, Hyline 36 commercial-type laying hens. The note with it: for Specific gravity: mean of eggs of Days 2, 9, 16, 23, SEM .001.
Text: as §1, §2, §3

Assay [14] relates to laying hens. In words: Percentage of egg crude protein (Kjeldahl N method), Example 1. Format: in vivo, Hyline 36 commercial-type laying hens. To be noted: for Egg Protein: egg of Day 24, SEM .2, chromium quadratic effect P < .02.
Text: as §1, §2, §3

The subject of assay [15] is laying hens. Kind of assay: Egg production, Example 1 (28-day feeding trial, hens 32-36 weeks of age). Format: in vivo, Hyline 36 commercial-type laying hens. To be noted: for Egg Production: 28 days, mean of 10 replicates, SEM 2.7, chromium cubic effect P < .03.
Text: as §1, §2, §3

Assay [16] relates to laying hens. In words: Egg yolk cholesterol (Lieberman-Burchard method), Example 1. It counts as in vivo, Hyline 36 commercial-type laying hens. The note with it: for Egg CH (cholesterol): mean of eggs of Days 0, 7, 14, 21, 28, SEM .2.
Text: as §1, §2, §3

The mark [17] stands for this setting: overall, 100-400 ppb Cr, P>0.10.
Where [18] appears, read: hens receiving 100 and 200 ppb Cr.

In the case of `[Cr]` [Cr, chromium], in [1], the HDL cholesterol result is on record as “increases” and the Serum triglycerides entry was “decreases”. Moreover, in [2], the Turkey breast tissue result is on record as “small increase”. Besides, in assay [3], the “Biological activity in the laying hen” value is listed as “biologically active”. Moreover, in assay [4], the “Cholesterol (CH) accumulation” value was “decreased” and the “Removal rate of CH already deposited in the aorta” value is recorded as “increased”. In assay [5], the “Growth rate of turkey poults” value is given as “improved”.
As to `O.O.O.O.O.O.[Cl][Cr]([Cl])[Cl]` [CrCl3.6H2 O], in [6], the “Effect on egg production” value is “no positive effect”.
Take `O=C(O)c1ccccn1` [picolinic acid, pyridine-2-carboxylic acid]: the “Growth rates in rats” value in assay [7] was “greater growth rates”. Besides, in assay [8], the Growth rates result is “faster growth rates” and the Zinc absorption entry is “did not aid zinc absorption”.
With chromium picolinate, the “Egg Production” value in [9] (B + 100 ppb Cr in diet) turned out to be 85.2%; in assay [9] (B + 200 ppb Cr in diet), 82.3%; in assay [9] (B + 300 ppb Cr in diet) it was 84.5%; in assay [9] (B + 400 ppb Cr in diet), 81.6%; in assay [11] (B + 100 ppb Cr in diet), 83.0%; in assay [11] (B + 200 ppb Cr in diet), 82.1%. The “Egg Production” value in assay [11] (B + 300 ppb Cr in diet) amounted to 74.8%; in assay [11] (B + 400 ppb Cr in diet) it was 77.1%; in assay [15] (B + 50 ppb Cr in diet), 79.3%; in assay [15] (B + 100 ppb Cr in diet), 81.1%; in assay [15] (B + 200 ppb Cr in diet), 83.2%; in assay [15] (B + 400 ppb Cr in diet), 76.1%. Besides, the “Egg Production” value in assay [15] (B + 800 ppb Cr in diet) was determined as 77.7%. For the same molecule, the “Effect on egg production” value is “numerical increase in egg production” in [9] (at 100 ppb Cr); “not observed to affect egg production” in assay [9] (setting [17]); “numerical increase in egg production” in assay [11] (at 100 ppb Cr); “not observed to affect egg production” in [11] (setting [17]); “decreased” in [15] (at 400 and 800 ppb Cr, Cr cubic, P<0.03); “incrementally increased in some circumstances” in assay [15] (supplementing the diet with CrPic, summary statement). Further, the “Effect on egg production” value in assay [15] (through 200 ppb Cr, Cr cubic, P<0.03) is reported as “increased”. Also, the Haugh units came out at 82.6 in assay [10] (B + 50 ppb Cr in diet); 84.6 in [10] (B + 100 ppb Cr in diet); 82.0 in [10] (B + 200 ppb Cr in diet); 85.0 in assay [10] (B + 400 ppb Cr in diet); 79.7 in assay [10] (B + 800 ppb Cr in diet). Further, in assay [10] (P>0.1), the “Effect on Haugh units” value was “not affected”. The Egg fat in assay [12] (B + 50 ppb Cr in diet) was found to be 10.2%; in assay [12] (B + 100 ppb Cr in diet), 10.6%; in assay [12] (B + 200 ppb Cr in diet), 10.8%; in [12] (B + 400 ppb Cr in diet), 10.0%; in assay [12] (B + 800 ppb Cr in diet) it was 9.9%. Besides, the “Effect on percentage of egg fat” value was “lower” in [12] (hens receiving 50, 400, and 800 ppb Cr); “higher” in assay [12] (setting [18]). The Specific gravity in assay [13] (B + 50 ppb Cr in diet) was found to be 1.085; in assay [13] (B + 100 ppb Cr in diet) it was 1.084; in assay [13] (B + 200 ppb Cr in diet), 1.084; in [13] (B + 400 ppb Cr in diet), 1.084; in assay [13] (B + 800 ppb Cr in diet) it was 1.085. Besides, the “Effect on specific gravity” value in [13] (P>0.1) was “not affected”. In addition, the “Egg Protein” value in assay [14] (B + 50 ppb Cr in diet) is 12.2%; in assay [14] (B + 100 ppb Cr in diet) it was 12.2%; in [14] (B + 200 ppb Cr in diet), 12.2%; in [14] (B + 400 ppb Cr in diet), 12.6%; in assay [14] (B + 800 ppb Cr in diet) it was 12.3%. Also, the “Effect on percentage of egg crude protein” value in assay [14] (CrPic supplementation to the diet, Cr quadratic, P<0.02) is “reduced”. In assay [15] (in the diet, from the experiments of Examples 1-3), the “Optimum dosage of CrPic for egg production” value is given as 100-200 ppb Cr. Moreover, the “Egg CH (cholesterol)” value in assay [16] (B + 50 ppb Cr in diet) is recorded as 12.1 mg/g yolk; in assay [16] (B + 100 ppb Cr in diet) it was 11.7 mg/g yolk; in assay [16] (B + 200 ppb Cr in diet), 11.9 mg/g yolk; in assay [16] (B + 400 ppb Cr in diet) it was 12.1 mg/g yolk; in assay [16] (B + 800 ppb Cr in diet), 11.9 mg/g yolk. For the same molecule, the “Effect on egg CH” value in [16] (CrPic supplementation overall, P>0.1) is on record as “not affected”; in assay [16] (setting [18]), “tended to be lower”. Besides, the “Effect on egg CH by Day 28” value in [16] (by Day 28 of the trial, Cr quadratic, P<0.05) is recorded as “reduced”.
